Entries after “also recorded” stand apart in the source; their conditions may differ.
Experiments:
[1] = system: Human dermal fibroblasts (HDF); test: Collagen protein in conditioned media (Sircol Collagen Assay) of human dermal fibroblasts; assay type: cell-based; conditions: for collagen production (collagen levels secreted into the media): HDF treated at 1 mM, result in words
Description: (§1) The collagen protein levels in the conditioned media were evaluated using the Sircol™ Collagen Assay (Biocolor, Antrim, UK) according to the manufacturer's instructions. […] After discarding the media, the cells were washed with 500 μL of phosphate-buffered saline (PBS), then incubated in 1 mL of serum-free media for another 24 hours. A 1.0 mL media sample (either conditioned media or fresh media as a negative control) was transferred to a microcentrifuge tube, mixed with 100 μL of collagen isolation and concentration reagent, and incubated overnight at 4° C. The samples were centrifuged at 13,000×g for 10 minutes at 4° C., and the supernatant was carefully removed using a pipette without disturbing the pellet. Each tube was then added with 500 μL of Sircol dye reagent, inverted five times, and shaken at room temperature for 30 minutes. After centrifugation, the supernatant was discarded, and the pellet was washed with 500 μL of cold acid-salt washing reagent, followed by another centrifugation step. The pellet was then dissolved in 250 μL of alkali reagent, and a 200 μL portion was transferred to a 96-well plate. The optical density of the solution was read at 555 nm using a Spectrostar Nano microplate reader (BMG LABTECH GmbH, Ortenberg, Germany).

[2] = system: human dermal fibroblasts; test: Wound healing (wound closure) assay, Oris cell migration kit; assay type: cell-based; conditions: HDF
Description: Wound closure analysis was performed using the Oris™ Universal Cell Migration Assembly kit (Platinus Technologies, WI, USA) according to the manufacturer's instructions. The Oris™ stoppers were inserted into each well of the Oris™-compatible 96-well plate, and the plate was inverted to check for complete stopper attachment. A suspension of human dermal fibroblasts in IMDM was added to each well (1×10^4 cells in 100 μL per well) and incubated for 12 hours to allow cell attachment. Then, the stoppers were removed using the stopper tool, and the medium was aspirated using a pipette. The wells were gently washed with 100 μL PBS to remove unattached cells, and the attached cells were treated with drugs in 100 μL culture medium for the specified time, respectively. Images of the wounds were obtained using a phase-contrast microscope (Eclipse TS 100, Nikon Instruments Inc., Melville, NY, USA). The wound areas in the images were quantified using the NIH Image J program. Wound closure (%) was calculated using the following equation: Wound closure (%)=[(A0−At)/A0]×100, where A0 is the area of the original wound and At is the wound area measured at the specified time.

[3] = system: human articular chondrocytes (HAC); test: Collagen protein (Sircol Collagen Assay) in human articular chondrocytes; assay type: cell-based; conditions: for increase in collagen production compared to the control: absence of TGF-β1
Description: as §1

[4] = system: human articular chondrocytes (HAC); test: Cell viability / proliferation (MTT assay) in human articular chondrocytes; assay type: cell-based; conditions: for cell viability compared to the control group: concentration series (FIGS. 13g to 13l)
Description: The cell viability was evaluated using the MTT assay.

[5] = system: human follicle dermal papilla cells (HFCPC); test: Collagen protein (Sircol Collagen Assay) in human follicle dermal papilla cells; assay type: cell-based; conditions: 1 mM
Description: as §1

[6] = system: human aortic endothelial cells (HAoEC); test: Collagen protein (Sircol Collagen Assay) in human aortic endothelial cells; assay type: cell-based; conditions: 1 mM
Description: as §1

[7] = system: human osteoblasts (HOB); test: Collagen protein (Sircol Collagen Assay) in human osteoblasts; assay type: cell-based; conditions: 1 mM
Description: as §1

[8] = system: Human dermal fibroblasts (HDF); test: Cell viability / proliferation (MTT assay) in human dermal fibroblasts; conditions: for cell proliferation (MTT reduction): concentration series (FIGS. 13a to 13f)
Description: (§2) Human dermal fibroblasts (HDF) extracted from adult skin were obtained from Cascade Biologics (Portland, OR, USA), and human articular chondrocytes (HAC), human follicle dermal papilla cells (HFCPC), human aortic endothelial cells (HAoEC), and human osteoblasts (HOB) were obtained from PromoCell (Heidelberg, Germany). The cells were cultured in a closed incubator at 37° C. in humidified air comprising 5% CO2. The growth medium for HDF consisted of Iscove's Modified Dulbecco's Medium (IMDM) (Gibco BRL, Grand Island, NY, USA) supplemented with 10% fetal bovine serum (Hyclone, South Logan, UT) and 1% antibiotics (100 U·mL^−1 penicillin, 0.1 mg·mL^−1 streptomycin).
(§3) The cell viability was evaluated using the MTT assay. Briefly, HDF (1×10^4 cells per well), HAC (5×10^3 cells per well), HFDPC (1×10^4 cells per well), HAoEC (5×10^3 cells per well), and HOB (2×10^3 cells per well) were cultured in growth media in a 96-well culture plate for 24 hours, followed by treatment with each drug for 48 hours. After discarding the media, the cells were incubated at 37° C. for 2 hours in fresh growth media (100 μL) containing 1 mg·mL^−1 MTT (Amresco, Solon, OH, USA). The media was removed by aspiration, and the formazan dye accumulated inside the cells was dissolved in 100 μL of dimethyl sulfoxide. The absorbance of the solution was measured at 570 nm using a Spetrostar Nano microplate reader (BMG LABTECH GmbH, Ortenberg, Germany).

[9] = system: Human dermal fibroblasts (HDF); conditions: 48 h
Description: as §2, §3

[10] = HDF, 1 mM each, absence of TGF-β1 (FIG. 5a)
[11] = HDF, concentration series (FIGS. 13a to 13f)

Compound | increase in collagen production compared to the control ([1]; HDF, 0.5 mM, absence of TGF-β1) | increase in collagen production compared to the control [1, 10] | collagen production [1, 11] | change in wound closure induced by treatment ([2]; 24 hours after treatment) | change in wound closure induced by treatment ([2]; after 12 hours of treatment) | collagen production ([3]; 0.5 mM) | increase in collagen production compared to the control ([3]; 0.5 mM) | cell viability compared to the control group ([4]; HAC) | cell proliferation (MTT reduction) ([8]; HDF) | collagen production ([1]; HDF, 10 μM) | concentrations that reduced cell viability [9] | concentrations with no effect on cell viability [9] | further results
Cl.NCC(N)=O [glycinamide, Glycinamide HCl] | 139.2% | 68.2% | increased collagen production in a concentration-dependent manner | 19.2% | 6.3% | enhancing collagen production | 181.3% | slightly but significantly increased cell viability | did not affect cell proliferation | – | – | – | collagen production (collagen levels secreted into the media) ([1]; HCl): most effective; also recorded: highest collagen production-promoting effect; collagen production (collagen levels secreted into the media) ([1]; listed as glycylamine, HCl): superior collagen-promoting effect compared to all free amino acids; change in collagen production, individual treatment ([1]; HDF, 100 μM): 27.2%; change in collagen production, individual treatment ([1]; HDF, 1000 μM): 75.7%; change in collagen production induced by individual treatment ([1]; HDF, FIG. 7b, concentration not given): 67.4%; wound closure ([2]; treated alone, up to 48 hours (FIG. 8b)): promoted wound closure; collagen production ([3]; 1 mM): most effective among the amidated amino acids; increase in collagen production (greatest effect) ([3]; 2 mM): 238.6%; collagen production [5]: most effective among the amidated amino acids; collagen production [6]: most effective among the amidated amino acids; collagen production [7]: most effective among the amidated amino acids; collagen production effect [7]: 433.8%; cell viability ([8]; HDF treated at 1 mM, result in words): no significant change in cell viability
TGF-β1: Recombinant human TGF-β1 protein purchased from R&D Systems | – | – | collagen production enhancement effect that surpassed its cell proliferation effect | – | – | – | – | slightly but significantly increased cell viability | increased the proliferation | – | – | – | collagen production ([1]; HDF, TGF-β1 10 ng mL^−1 alone): effect of enhancing collagen production; wound closure compared to the control ([2]; 12 and 24 hours post-treatment): significantly improved wound closure; collagen production ([3]; TGF-β1 10 ng mL^−1 alone): effect of enhancing collagen production; collagen production ([3]; TGF-β1 up to 10 ng mL-1): improved collagen production in a dose-dependent manner; cell proliferation compared to the control ([4]; HAC (FIGS. 14a to 14d)): better cell proliferation compared to the control; cell proliferation compared to the control ([8]; HDF (FIGS. 14a to 14d)): better cell proliferation compared to the control; increase in number of viable cells compared to the control ([8]; HDF, TGF-β1 10 ng mL^−1, or ascorbic acid 1 mM + glycinamide 1 mM (FIG. 5b)): 44.5%
C[C@H]1[C@H](C)CC[C@]2(C(=O)O)CC[C@]3(C)C(=CC[C@@H]4[C@@]5(C)C[C@@H](O)[C@H](O)[C@@](C)(CO)[C@@H]5[C@H](O)C[C@]43C)[C@H]12 [madecassic acid] | – | – | – | – | – | – | – | – | – | decreased | above 300 μM | below 100 μM | –
O=C1O[C@H]([C@@H](O)CO)C(O)=C1O [ascorbic acid, reference compound] | – | 23.1% | – | 9.1% | 2.5% | – | – | – | – | – | – | ≤ 1000 µM | collagen production (collagen levels secreted into the media) [1]: increased collagen production; collagen production ([1]; HDF, 3 and 5 mM): significantly reduced; concentrations at which collagen production increased ([1]; HDF, non-cytotoxic concentrations (FIG. 10b)): 10 to 1000 µM
Cl.N[C@H]1C(O)O[C@H](CO)[C@@H](O)[C@@H]1O (stereo partly drawn) [glucosamine, glucosamine HCl, reference compound] | 118.6% | – | increased collagen production | – | – | increased collagen production | 147.6% | – | did not affect cell proliferation | – | – | – | cell viability ([4]; HAC, 0.5 mM): without affecting cell viability
C[C@H]1[C@H](C)CC[C@]2(C(=O)O)CC[C@]3(C)C(=CC[C@@H]4[C@@]5(C)C[C@@H](O)[C@H](O)[C@@](C)(CO)[C@@H]5CC[C@]43C)[C@H]12 [asiatic acid] | – | – | – | – | – | – | – | – | – | decreased | above 300 μM | below 100 μM | –

— US20260027071A1, “COMPOSITION FOR PROMOTING COLLAGEN PRODUCTION COMPRISING AMIDATED AMINO ACID” (KYUNGPOOK NATIONAL UNIVERSITY INDUSTRY-ACADEMIC COOPERATION …, priority 2022, published 2026)
